Reference: patent US20100168112A1, “2-Substituted and 4-substituted aryl nitrone compounds” (RENOVIS, INC., priority 2004, published 2010)
pEC50: −log10 of the molar value.

Columns and labels:
[1] = DPPH free radical-scavenging/antioxidant assay; format: biochemical; conditions: 50 μM DPPH in 80% methanol; 24 h time point; read-out: EC50 (concentration at which a compound reduces by 50% the peak absorbance of DPPH at 520 nm)
Experimental: Nitrone compounds of the present invention were tested for their free-radical scavenging/antioxidant activity in an in vitro assay that is accepted by those skilled in the art as a model for conditions involving the generation of free radicals. The assay is based on a reaction between a free-radical donor, 2,2-diphenyl-1-picrylhydrazyl (DPPH), and a radical scavenger/antioxidant to be tested for free-radical scavenging activity. Upon donation of the free-radical electron to the purported radical scavenger, the peak visible absorbance of DPPH (515-520 nm) decreases so that optical density readings at this part of the visual spectrum reflect the progression of the following reaction:
where AH is a hypothetical radical scavenger/antioxidant. The assay is based on a protocol originally detailed in Brand-Williams, W. et al., 1995, Use of a Free Radical Method to Evaluate Antioxidant Activity, Lebensm. Wiss. Technol., 28:25-30, with further modifications described in L. R. Fukumoto and G. Mazza, 2000, Assessing Antioxidant and Prooxidant Activities of Phenolic Compounds, J. Agric. Food Chem., 48:3597-3604.
The antioxidant assay was performed using Perkin-Elmer 96-well, clear-bottom, black-wall plates (ordered from E & K Scientific Products) and a Tecan Safire absorbance plate reader. The positive controls were Trolox (6-hydroxy-2,5,7,8-tetramethylchromane-2-carboxylic acid, Sigma-Aldrich), BHA (2(3)-tert-butylhydroquinone monomethyl ether, Sigma-Aldrich), PBN (C-(phenyl)-N-(tert-butyl)nitrone, Sigma-Aldrich) and S-PBN (C-(2-sulfophenyl)-N-(tert-butyl)nitrone, sodium salt, prepared according to E. G. Janzen and R. V. Shetty, 1979, Tetrahedron Lett., 35: 3229-32), and the negative control (i.e., vehicle) was DMSO. In brief, 2 μL of 100× DMSO stock of the desired final concentration of each control or nitrone compound to be tested in the same batch was added to a separate well. To each well was then added 198 μL of a freshly made 50 μM DPPH (Sigma-Aldrich) solution in 80% methanol using a multi-channel pipette. The absorbance was immediately read on the plate reader at 520 nm and thereafter read periodically to assess kinetics until all reactions reached completion (i.e., steady state). Since the steady-state point was 24 h, the assay results are shown from the 24 h time point. The absorbance at 520 nm (OD) was plotted versus the concentrations of the controls and nitrone compounds to assess dose-response and interpolate the EC50 values of the controls and test compounds.

[2] = Microsomal stability in human liver microsomes; format: in vitro ADME; conditions: NADPH, 37° C.
Experimental: Frozen Sprague-Dawley rat liver microsomes (RLM) were thawed on ice and gently mixed before use. The final reaction mixture consisted of a nitrone compound of this invention (at ˜500 ng/ml), 1 mM NADPH, and 0.5 mg/ml of RLM protein in 0.1 M PBS (pH7.4), with organic solvent concentration not exceeding 1% (v/v). Per set of incubations, a positive control compound was included. The mixture was first pre-incubated 3 to 5 minutes at 37° C. without NADPH, and the reaction was then initialized by the addition of NADPH and incubated at 37° C. for up to 30 minutes. An aliquot of the reaction mixture was sampled at the initiation of the reaction and at designated time after reaction started. The drawn samples were quenched with acetonitrile, diluted with mobile phase to ensure the detection of test article in the linear range, and analyzed by LC/MS/MS. Half-life or percentage of remaining nitrone compound was calculated using standard methods. A similar method, or a slight variation of it, was used to test the stability of nitrones in human liver microsomes (HLM).

[3] = Pharmacokinetic evaluation following intravenous and oral administration in rats; format: in vivo; conditions: male, Sprague-Dawley; for Cmax / Tmax / bioavailability: 5 mg/kg; for Cmax: rat plasma; for Cmax / Tmax: oral gavage, 2 mg/mL at 2.5 mL/kg; for clearance / Vd / Tmax / bioavailability / half-life: plasma, rat; for clearance / Vd / half-life: 1 mg/kg; for clearance / Vd: intravenous administration, 1 mg/mL at 1.0 mL/kg; for clearance: read-out: CI (clearance) (converted); for Vd: read-out: Vd (volume of distribution); for bioavailability: po 2 mg/mL at 2.5 mL/kg vs iv 1 mg/mL at 1.0 mL/kg, dose-normalized, read-out: F (%) oral bioavailability; for half-life: intravenous, read-out: T1/2 elimination half life (converted)
Experimental: Male Sprague-Dawley rats were given at least 24 hours acclimation before experiment initiation. During acclimation period, all animals received food and water ad libitum. However, food (not water) was removed from the animal's cages up to 12 hours before initiation of the experiment. During the first 4 hours of experimentation, the animals received only water ad libitum. Two to three animals for iv and three animals for oral administration were tested. For iv formulation nitrone compounds of this invention were dissolved (1 mg/mL) in a mixture of 5% dimethyl acetamide (v/v), 0 to 4% Tween 80 (v/v), 10 to 40% PEG 400 (v/v) and the rest percentage of water (v/v). For oral formulation nitrone compounds of this invention were dissolved (2 mg/mL) in a mixture of 4% of 10% Tween in water and 96% of 0.5% carboxymethyl cellulose (medium viscosity) in water; or 4% of 10% Tween in water, 48% of 0.5% carboxymethyl cellulose (medium viscosity) in water, and 48% of 0.5% Hydroxypropyl Methylcellulose/0.2% Sodium Lauryl Sulfate in water. These formulations were stored at 5° C. until the experiment. Formulations were then stir-mixed at least half an hour before dosing. Exactly 200 μL of each left-over formulation was diluted with CH3CN/H2O for concentration analysis. The animals were weighed before dosing. The body weight was used to calculate the true dose for each animal:
IV dosing: • Dose volume (mL)=1.0 mL/kg The intravenous dose was administered through the jugular vein catheter or tail vein in less than 1 minute.
PO dosing: • Dose volume (mL)=2.5 mL/kg The oral dose was administered by oral gavage.
For IV dosing, blood samples were collected (using a pre-heparinized syringe) via the carotid artery or jugular vein catheter at t=2, 5, 15, 30, 60, 120, 180, 360, and 480 minutes post dosing. For PO dosing, blood samples were collected (using a pre-heparinized syringe) via the carotid artery or jugular vein catheter before dosing and at t=5, 15, 30, 60, 120, 180, 360, and 480 minutes post dosing. For some nitrone compounds a 1440 minutes (24 hours) sample was also taken for both IV and PO administrations. About 250 μL of blood was obtained at each time point from the animals. Equal volumes of 0.9% normal saline were replaced to prevent dehydration. The whole blood samples were maintained on ice until centrifugation. Blood samples were then centrifuged at 14,000 rpm for 10 minutes at 4° C. and the upper plasma layer transferred into a clean vial and stored at −80° C. The resulting plasma samples were then analyzed by mass spectroscopy using standard methods.
All the samples from above assays were analyzed on a PE-Sciex API 3000 triple quadrupole with a Turbo Ion Spray source. Nitrone compounds of this invention were separated from the matrix via a linear gradient reverse-phase chromatography using a C18 column, such as Thermo BDS Hypersil C18 (100×4.6 mm, 5 micron particle, 120A pore size). The mobile Phases were:
Nitrone compounds were detected by the mass spectrometer in the positive ion multiple reaction monitoring mode (MRM). For quantitative analysis, a standard curve was prepared by spiking a stock solution of the nitrone compound to the appropriate matrix to achieve a quantitation curve range and analyzed the standards in the same manner as the samples.
Pharmacokinetic parameters of the aryl nitrone compounds were determined by a noncompartmental analysis using WinNonlin-Pro (Version 4.1, Pharsight Corporation). Average and standard deviation of the parameters were calculated using standard formulas in Microsoft Excel.

Row | Structure (SMILES) | pEC50 [1] | % of Nitrone Remaining at 30 min (Human) [2] [%] | Cmax [3] [ng/mL] | clearance [3] [mL/min/kg] | Vd [3] [L/kg] | Tmax [3] [min] | bioavailability [3] [%] | half-life [3] [min]
1 | CNS(=O)(=O)c1ccccc1/C=[N+](\[O-])C(C)(C)C [Compound 47, N-tert-Butyl-C-(2-methylsulfamoyl-phenyl)nitrone] | < 3.00 | 100 | – | – | – | – | – | –
2 | CC(C)(C)/[N+]([O-])=C/c1ccccc1S(=O)(=O)NCc1ccccc1 [Compound 49, N-tert-Butyl-C-(2-benzylsulfamoyl-phenyl)nitrone] | < 3.00 | 0 | – | – | – | – | – | –
3 | CCN(CC)S(=O)(=O)c1ccc(/C=[N+](\[O-])C(C)(C)C)cc1 [Compound 50, N-tert-Butyl-C-(4-diethylsulfamoylphenyl)nitrone] | < 3.00 | 86 | – | – | – | – | – | –
4 | CCN(CC)S(=O)(=O)c1ccc(/C=[N+](\[O-])C(C)C)cc1 [Compound 51, N-Isopropyl-C-(4-diethylsulfamoylphenyl)nitrone] | < 3.00 | 94 | – | – | – | – | – | –
5 | CCN(CC)S(=O)(=O)c1ccc(/C=[N+](\[O-])C2CCCCC2)cc1 [Compound 52, N-Cyclohexyl-C-(4-diethylsulfamoylphenyl)nitrone] | – | 64 | – | – | – | – | – | –
6 | CCN(CC)S(=O)(=O)c1ccc(/C=[N+](\[O-])Cc2ccccc2)cc1 [Compound 53, N-Benzyl-C-(4-diethylsulfamoylphenyl)nitrone] | – | 65 | – | – | – | – | – | –
7 | CC(C)/[N+]([O-])=C/c1ccc(S(=O)(=O)N(C)c2ccccc2)cc1 [Compound 55, N-Isopropyl-C-[4-(methyl-phenyl-sulfamoyl)phenyl]nitrone] | – | 82 | – | – | – | – | – | –
8 | CN(c1ccccc1)S(=O)(=O)c1ccc(/C=[N+](\[O-])C2CCCCC2)cc1 [Compound 56, N-Cyclohexyl-C-[4-(methyl-phenyl-sulfamoyl)phenyl]nitrone] | < 3.00 | 33 | – | – | – | – | – | –
9 | CC(C)(C)NS(=O)(=O)c1ccc(/C=[N+](\[O-])Cc2ccccc2)cc1 [Compound 61, N-Benzyl-C-[4-(tert-butylsulfamoyl)phenyl]nitrone] | < 3.00 | 95 | – | – | – | – | – | –
10 | CS(=O)(=O)c1ccc(/C=[N+](\[O-])Cc2ccccc2)cn1 [Compound 81, N-Benzyl-C-(6-methanesulfonyl-pyridine-3-yl)nitrone] | – | 90.5 | – | – | – | – | – | –

Continued, values first:

Row | pEC50 [1] | % of Nitrone Remaining at 30 min (Human) [2] [%] | Cmax [3] [ng/mL] | clearance [3] [mL/min/kg] | Vd [3] [L/kg] | Tmax [3] [min] | bioavailability [3] [%] | half-life [3] [min] | Structure (SMILES)
11 | < 3.00 | 100 | 862 | 32.8 | 1.39 | 15 | 55.3 | 29.4 | CC(C)(C)NS(=O)(=O)c1ccccc1/C=[N+](\[O-])C(C)(C)C [Compound 48, N-tert-Butyl-C-(2-tert-butylsulfamoyl-phenyl)nitrone]
12 | < 3.00 | 62 | 180 | 35.8 | 3.21 | 15 | 13.2 | 61.8 | CN(c1ccccc1)S(=O)(=O)c1ccc(/C=[N+](\[O-])C(C)(C)C)cc1 [Compound 54, N-tert-Butyl-C44-(methyl-phenyl-sulfamoyl)phenylInitrone]
13 | < 3.00 | 14 | – | – | – | – | – | – | CN(c1ccccc1)S(=O)(=O)c1ccc(/C=[N+](\[O-])Cc2ccccc2)cc1 [Compound 57, N-Benzyl-C-[4-(methyl-phenyl-sulfamoyl)phenyl]nitrone]
14 | < 3.00 | 100 | – | – | – | – | – | – | CC(C)(C)NS(=O)(=O)c1ccc(/C=[N+](\[O-])C(C)(C)C)cc1 [Compound 58, N-tert-Butyl-C[4-(tert-butylsulfamoyl)phenyl]nitrone]
15 | < 3.00 | 100 | – | – | – | – | – | – | CC(C)/[N+]([O-])=C/c1ccc(S(=O)(=O)NC(C)(C)C)cc1 [Compound 59, N-Isopropyl-C-[4-(tert-butylsulfamoyl)phenyl]nitrone]
16 | < 3.00 | 100 | 1.59 | 63.3 | 2.84 | 8.4 | 0.4 | 30.6 | CC(C)(C)NS(=O)(=O)c1ccc(/C=[N+](\[O-])C2CCCCC2)cc1 [Compound 60, N-Cyclohexyl-C-[4-(tert-butylsulfamoyl)phenyl]nitrone]
17 | – | 94.5 | 3940 | 3.5 | 0.52 | 30 | 54.7 | 103 | CC(C)(C)/[N+]([O-])=C/c1ccc(S(C)(=O)=O)nc1 [Compound 80, N-tert-Butyl-C-(6-methanesulfonyl-pyridine-3-yl)nitrone]
